The source of these data is patent US10669284B2, “Fused thiazolopyrimidine derivatives as MNKS inhibitors” (LIFEARC, priority 2015, dated 2020).

Test [1] concerns phosphorylation of eIF4E at ser209 in MV4.11 cell line. Kind of test: MNK cellular activity phospho-eIF4E detection assay (Alphascreen Surefire). The class given is cell-based. The note with it: Homo sapiens. Here is the method:
The assay detection is based on the formation of sandwich antibody complexes coupled to donor and acceptor beads. Excitation at 680 nm causes the transfer of a singlet oxygen species between donor and acceptor beads when they are in close proximity by binding to the analyte ([…]), which results in the emission of light at 520-620 nm.
Cells were then lysed and the Alphascreen Surefire protocol followed according to manufacturer's recommendations. 8 ul Acceptor beads (1:50 dilution in kit activation buffer) was added to lysate, shaken 150 rpm for 2 min and incubated for 1.5 hr at room temperature. 3 ul Donor beads (1:20 dilution in kit dilution buffer) were then added, shaken 150 rpm for 2 min and incubated for a further 1.5 hr at room temperature after which the plates were read on Pherastar FS using Alphascreen optic module.
Data were normalised relative to untreated DMSO only controls and curves repeated in duplicate within experiments. Data reported are averages of at least 2 independent experiments.

Another test addresses T1, Full-length human MNK1 (Homo sapiens, UniProt Q9BUB5, T385D).
T1 construct: GST (N); purchased Carna Biosciences 02-145; host or cells: baculovirus expression system
Kind of test: MNK1 biochemical IC50 assay (Caliper Mobility Shift Assay). The note with it: read-out: P(IC50) MNK1 (converted). The source says:
(§1) The phosphorylated peptide product and unphosphorylated peptide substrate were detected using a Caliper Mobility Shift Assay using the Caliper LabChip EZ Reader II.
(§2) The Caliper Mobility Shift Assay technology is based on the utilisation of a microfluidic chip to measure the conversion of a fluorescent non-phosphorylated peptide substrate to phosphorylated product by electrophoresis separation of substrate and product and detection via Laser-induced fluorescence. The LabChip EZ Reader software calculates the relative heights of substrate and product peaks and reports the peak ratio (Product peak(P) divided by the sum of Product peak(P) and Substrate peak(S)). The percent-conversion is calculated as 100×[(P/(P+S)]. All assays were set up to run in the linear phase with a maximum of 10 percent substrate conversion.
(§3) These were N-terminal GST fusion proteins expressed in baculovirus expression system and purified by glutathione sepharose affinity chromatography. […] All other assay reagents were sourced from Sigma.
Compounds were serially diluted in DMSO to generate a 10-point half log dilution curve with a final top concentration of 100 uM in the assay. […] Compounds were pre-incubated with enzyme and peptide in reaction buffer for 30 mins prior to addition of ATP to initiate the reaction. Final assay concentrations were 3 nM MNK1, 2 uM peptide substrate, 50 uM ATP, 50 mM Hepes pH 7.0, 0.01% BSA, 10 mM MgCl2, 1 mM dithiothrietol.
(§4) The assay incubation times were adjusted depending on the concentration of ATP used. Assays were performed at low (50 uM) and high (1 mM) ATP. The low ATP values were selected to run at Km conditions for the standard assay to allow relative potencies to be compared across other kinases. The high ATP concentration was selected as representative of cellular ATP concentrations, and for an indication of ATP competition, where a significant shift (greater than half log) in apparent potency would be expected compared to Km conditions. All IC50 values reported are the average of at least two independent experiments.

The target of the next test is T2, Full-length human MNK2 (Homo sapiens, UniProt Q9HBH9, T379D).
T2 construct: GST (N); purchased Carna Biosciences 02-146; host or cells: baculovirus expression system
T2 sequence (Q9HBH9 whole entry T379D): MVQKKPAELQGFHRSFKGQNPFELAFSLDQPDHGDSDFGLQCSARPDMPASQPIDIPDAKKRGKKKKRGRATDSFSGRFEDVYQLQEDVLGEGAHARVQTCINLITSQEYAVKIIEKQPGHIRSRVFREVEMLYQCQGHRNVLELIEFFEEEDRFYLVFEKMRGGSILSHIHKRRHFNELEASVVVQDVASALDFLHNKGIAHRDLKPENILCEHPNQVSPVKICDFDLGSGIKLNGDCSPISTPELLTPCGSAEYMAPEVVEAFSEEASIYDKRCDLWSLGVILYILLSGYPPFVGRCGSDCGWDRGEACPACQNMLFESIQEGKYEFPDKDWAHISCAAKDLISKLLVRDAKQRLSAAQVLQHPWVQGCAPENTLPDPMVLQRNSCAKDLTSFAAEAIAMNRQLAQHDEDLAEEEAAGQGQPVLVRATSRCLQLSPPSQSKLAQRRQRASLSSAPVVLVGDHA
Kind of test: MNK2 biochemical IC50 assay (Caliper Mobility Shift Assay).
Text: as §1, §2, §3, §4
Reactions were performed as above using 10 nM MNK2 in the assay. Standard assays contained 50 uM ATP and high concentration ATP assays contained 1 mM ATP. […] All other conditions were the same.

Setting [2] is: MV4.11 cell line, phospho-eIF4E (ser209) Alphascreen Surefire, read-out: P(IC50) elF4E (converted).
Where [3] appears, read: read-out: P(IC50) MNK2 (converted).

Like-named read-outs stand apart in the source and are kept apart here.

T1 sequence (Q9BUB5 1-424 isoform Q9BUB5-2 T344D): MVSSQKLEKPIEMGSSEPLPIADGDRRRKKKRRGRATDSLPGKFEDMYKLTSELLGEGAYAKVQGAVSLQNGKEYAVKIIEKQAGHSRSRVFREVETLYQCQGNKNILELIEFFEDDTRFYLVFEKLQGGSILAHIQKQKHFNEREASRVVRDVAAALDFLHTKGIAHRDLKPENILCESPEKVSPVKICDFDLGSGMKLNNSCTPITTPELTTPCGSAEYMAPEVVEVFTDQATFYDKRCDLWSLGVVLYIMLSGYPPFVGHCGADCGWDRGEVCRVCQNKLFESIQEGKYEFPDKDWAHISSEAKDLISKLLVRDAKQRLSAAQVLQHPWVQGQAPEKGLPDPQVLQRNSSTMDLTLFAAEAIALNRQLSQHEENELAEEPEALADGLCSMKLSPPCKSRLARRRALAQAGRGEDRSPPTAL

One may read the IC50 as the point on the concentration scale where inhibition reaches its midpoint. On to `O=C(NCC1CCNCC1)c1nc2c(Nc3ccc(F)cc3OC3CCCC3)ncnc2s1` [Example 51, 7-[2-(cyclopentoxy)-4-fluoro-anilino]-N-(4-piperidylmethyl)thiazolo[5,4-d]pyrimidine-2-carboxamide], for which the concentration for half-maximal inhibition (IC50) in test [1] (setting [2]) was 126 nM; on Full-length human MNK1, 126 nM; on Full-length human MNK2 (setting [3]), 100 nM.

For `CNCCC1(C)CN(c2ncnc3sc(C(=O)NC4CCOCC4)nc23)c2ccccc21` (stereo not drawn) [Example 118, 7-[3-Methyl-3-[2-(methylamino)ethyl]indolin-1-yl]-N-tetrahydropyran-4-yl-thiazolo[5,4-d]pyrimidine-2-carboxamide], the IC50 in test [1] (setting [2]) was 251 nM; on Full-length human MNK1, 126 nM; on Full-length human MNK2 (setting [3]), 158 nM.

With `CN(C)CCCNC(=O)c1nc2c(Nc3ccc(F)cc3O[C@H]3CCCC[C@@H]3O)ncnc2s1` [Example 19, N-[3-(dimethylamino)propyl]-7-[4-fluoro-2-[(1S,2S)-2-hydroxycyclohexoxy]anilino]thiazolo[5,4-d]pyrimidine-2-carboxamide], the values for the IC50 (in test [1] (setting [2]); at Full-length human MNK1; at Full-length human MNK2 (setting [3])) were 251 nM, 794 nM and 794 nM, respectively.

As to `O=C(NCC1CCNCC1)c1nc2c(N3CC(CCO)c4ccccc43)ncnc2s1` (stereo not drawn) [Example 136], the values for the IC50 (in test [1] (setting [2]); at Full-length human MNK1; on Full-length human MNK2 (setting [3])) were 6.31 nM, 7.94 nM and 5.01 nM, respectively.

Consider `CC(C)Oc1cc(F)ccc1Nc1ncnc2sc(C(=O)NC3CCNCC3)nc12` [Example 31, 7-{[4-Fluoro-2-(propan-2-yloxy)phenyl]amino}-N-(piperidin-4-yl)[1,3]thiazolo[5,4-d]pyrimidine-2-carboxamide], for which the half-inhibitory concentration (IC50) in test [1] (setting [2]) is 50.1 nM; on Full-length human MNK1, 63.1 nM; at Full-length human MNK2 (setting [3]), 50.1 nM.

Regarding `C[C@@H]1Cc2ccccc2N1c1ncnc2sc(C(=O)NC3CCOCC3)nc12` [Example 130, 7-[(2R)-2-methylindolin-1-yl]-N-tetrahydropyran-4-yl-thiazolo[5,4-d]pyrimidine-2-carboxamide], the IC50 in test [1] (setting [2]) is 50.1 nM; at Full-length human MNK1, 50.1 nM; on Full-length human MNK2 (setting [3]) it was 39.8 nM.

In the case of `CN(C)C(=O)c1nc2c(N3CCc4cc(F)ccc43)ncnc2s1` [Example 70, 7-(5-fluoroindolin-1-yl)-N,N-dimethyl-thiazolo[5,4-d]pyrimidine-2-carboxamide], the IC50 in test [1] (setting [2]) is 63.1 nM; on Full-length human MNK1, 50.1 nM; at Full-length human MNK2 (setting [3]) it was 20 nM.

Consider `O=C(NC1CCOCC1)c1nc2c(N3CCc4cccc(F)c43)ncnc2s1` [Example 90, 7-(7-Fluoroindolin-1-yl)-N-tetrahydropyran-4-yl-thiazolo[5,4-d]pyrimidine-2-carboxamide], for which the IC50 in test [1] (setting [2]) was 158 nM; at Full-length human MNK1 it was 126 nM; at Full-length human MNK2 (setting [3]) it was 126 nM.

Take `O=C(NC1CCNCC1)c1nc2c(N3CCc4ccccc43)ncnc2s1` [Example 98, 7-indolin-1-yl-N-(4-piperidyl)thiazolo[5,4-d]pyrimidine-2-carboxamide]: the IC50 was 3.98 nM in test [1] (setting [2]), 3.16 nM at Full-length human MNK1 and 3.98 nM on Full-length human MNK2 (setting [3]).

Turning to `CC(C)Oc1cc(F)ccc1Nc1ncnc2sc(C(=O)NCC(O)CO)nc12` (stereo not drawn) [Example 12, N-(2,3-dihydroxypropyl)-7-(4-fluoro-2-isopropoxy-anilino)thiazolo[5,4-d]pyrimidine-2-carboxamide], the IC50 in test [1] (setting [2]) was 50.1 nM; at Full-length human MNK1, 126 nM; on Full-length human MNK2 (setting [3]), 63.1 nM.

Take `CC1CN(c2ncnc3sc(C(=O)NC4CCOCC4)nc23)c2ccccc21` (stereo not drawn) [Example 125, 7-(3-Methylindolin-1-yl)-N-tetrahydropyran-4-yl-thiazolo[5,4-d]pyrimidine-2-carboxamide]: the half-maximal inhibitory concentration (IC50) is 3.98 nM in test [1] (setting [2]), 3.16 nM at Full-length human MNK1 and 3.98 nM at Full-length human MNK2 (setting [3]).

On to `CC(C)Oc1ncccc1Nc1ncnc2sc(C(=O)NCC3CCNCC3)nc12` [Example 55, 7-[(2-Isopropoxy-3-pyridyl)amino]-N-(4-piperidylmethyl)thiazolo[5,4-d]pyrimidine-2-carboxamide], for which the IC50 in test [1] (setting [2]) was 316 nM; at Full-length human MNK1 it was 316 nM; at Full-length human MNK2 (setting [3]) it was 251 nM.

Regarding `O=C(Nc1ccc(Nc2ncnc3sc(C(=O)NCC4CCNCC4)nc23)cc1)Nc1cccc(C(F)(F)F)c1` [Example 49, N-(4-piperidylmethyl)-7-[4-[[3-(trifluoromethyl)phenyl]carbamoylamino]anilino]thiazolo[5,4-d]pyrimidine-2-carboxamide], the results for the IC50 (in test [1] (setting [2]); on Full-length human MNK1; on Full-length human MNK2 (setting [3])) were 79.4 nM, 158 nM and 63.1 nM, respectively.

Take `CC(C)Oc1cc(F)ccc1Nc1ncnc2sc(C(=O)NCCCN3CCCC3)nc12` [Example 13, 7-(4-fluoro-2-isopropoxy-anilino)-N-(3-pyrrolidin-1-ylpropyl)thiazolo[5,4-d]pyrimidine-2-carboxamide]: the half-maximal inhibitory concentration (IC50) in test [1] (setting [2]) is 39.8 nM; at Full-length human MNK1 it was 50.1 nM; at Full-length human MNK2 (setting [3]) it was 39.8 nM.

For the compound `O=C(NCC(O)CO)c1nc2c(N3CCc4ccccc43)ncnc2s1` (stereo not drawn) [Example 104], the figures for the IC50 (in test [1] (setting [2]); at Full-length human MNK1; at Full-length human MNK2 (setting [3])) were 10 nM, 20 nM and 12.6 nM, respectively.

For the compound `CC(C)Oc1cc(F)ccc1Nc1ncnc2sc(C(=O)NCCN(C)C)nc12` [Example 39, N-[2-(dimethylamino)ethyl]-7-{[4-fluoro-2-(propan-2-yloxy)phenyl]amino}[1,3]thiazolo[5,4-d]pyrimidine-2-carboxamide], the figures for the IC50 (in test [1] (setting [2]); on Full-length human MNK1; at Full-length human MNK2 (setting [3])) were 63.1 nM, 158 nM and 126 nM, respectively.

`CC1(C)CN(c2ncnc3sc(C(=O)NCC4CCNCC4)nc23)c2ccccc21` [Example 161]: the half-maximal inhibitory concentration (IC50) was 3.16 nM in test [1] (MV4-11, read-out: P(IC50) elF4E); 3.16 nM on Full-length human MNK1; 2.51 nM at Full-length human MNK2.

With `CN(C)CCC1CN(c2ncnc3sc(C(=O)NC4CCOCC4)nc23)c2ccccc21` (stereo not drawn) [Example 152, 7-[3-[2-(dimethylamino)ethyl]-indolin-1-yl]-N-tetrahydropyran-4-yl-thiazolo[5,4-d]pyrimidine-2-carboxamide], the concentration for half-maximal inhibition (IC50) in test [1] (setting [2]) is 50.1 nM; on Full-length human MNK1, 100 nM; on Full-length human MNK2 (setting [3]), 79.4 nM.

Regarding `O=C(NCC1CCNCC1)c1nc2c(N3c4ccccc4C[C@H]3CO)ncnc2s1` [Example 137], the figures for the 50% inhibitory concentration (IC50) (in test [1] (setting [2]); on Full-length human MNK1; at Full-length human MNK2 (setting [3])) were 158 nM, 200 nM and 126 nM, respectively.

For the compound `CC1(C)CN(c2ncnc3sc(C(=O)NC4CCOCC4)nc23)c2ccc(F)cc21` [Example 105, 7-(5-Fluoro-3,3-dimethyl-indolin-1-yl)-N-tetrahydropyran-4-yl-thiazolo[5,4-d]pyrimidine-2-carboxamide], the IC50 was 2.51 nM in test [1] (setting [2]), 2 nM at Full-length human MNK1 and 3.16 nM on Full-length human MNK2 (setting [3]).

For `CC1(CO)CN(c2ncnc3sc(C(=O)NCC4CCNCC4)nc23)c2ccc(F)cc21` (stereo not drawn) [Example 141], the 50% inhibitory concentration (IC50) in test [1] (setting [2]) was 20 nM; at Full-length human MNK1, 3.16 nM; on Full-length human MNK2 (setting [3]) it was 5.01 nM.

On to `O=C(NC1CCOCC1)c1nc2c(N3CC(CCN4CCOCC4)c4ccccc43)ncnc2s1` (stereo not drawn) [Example 154, 7-[3-(2-morpholinoethyl)indolin-1-yl]-N-tetrahydropyran-4-yl-thiazolo[5,4-d]pyrimidine-2-carboxamide], for which the IC50 is 100 nM in test [1] (setting [2]), 79.4 nM at Full-length human MNK1 and 79.4 nM at Full-length human MNK2 (setting [3]).

In the case of `CC(C)Oc1cc(F)ccc1Nc1ncnc2sc(C(=O)NC3CCOCC3)nc12` [Example 33, 7-{[4-fluoro-2-(propan-2-yloxy)phenyl]amino}-N-(tetrahydro-2H-pyran-4-yl)[1,3]thiazolo[5,4-d]pyrimidine-2-carboxamide], the concentration for half-maximal inhibition (IC50) in test [1] (setting [2]) was 79.4 nM; at Full-length human MNK1, 100 nM; on Full-length human MNK2 (setting [3]) it was 79.4 nM.
